A short description of data set [1]: Zeta potential in 10 mM HEPES buffer (pH 7.4). Type of data set: physicochemical. As for the experimental part:
The average particle size (number-average value) and PDI in PBS(−) and zeta potential in 10 mM HEPES buffer solution (pH 7.4) of lipid nanoparticles were measured using “Zetasizer Nano ZS ZEN3600”, an analyzer utilizing dynamic light scattering (manufactured by Malvern).

Data set [2] is described as follows: pKa of lipid nanoparticles by TNS (section II). Type of data set: physicochemical. The following applies: F7siRNA-loaded LNP; compared with LNP of straight-chain CL4H6 or CL15H6 (FIG. 1). Here is the method:
The pKa of lipid nanoparticles was measured using p-toluidino-2-naphthalenesulfonic acid (TNS). First, TNS (final concentration: 0.75 μM) and lipid nanoparticles (final concentration: […]) were mixed in buffer solution adjusted to each pH. The fluorescence intensity of the prepared mixture was measured with a microplate reader. The highest and lowest values among the measured values were taken as 100% and 0% charge rates respectively, and the pH indicating 50% charge rate was calculated as pKa.

A short description of data set [3]: Nucleic acid encapsulation rate by Ribogreen (section II). Type of data set: physicochemical. The following applies: for % mRNA encapsulation: NlucmRNA-loaded LNP, 60:10:40:1; for % pDNA encapsulation: pFluc-loaded LNP. As for the experimental part: The encapsulation rates of siRNA, mRNA, and pDNA of lipid nanoparticles were measured using Ribogreen (manufactured by life technologies).

For another data set, the system named is F7. Briefly: In vivo F7 knockdown, plasma F7 enzyme activity, ICR mice. The settings on record: i.v. 0.003-0.1 mg siRNA/kg, plasma at 24 hours, compared with LNP of CL4H6 or CL15H6 (FIG. 2). Here is the method:
Then, each prepared F7siRNA-loaded lipid nanoparticles were administered to ICR mice (4 weeks old, female) and in vivo F7 knockdown activity was examined.
Specifically, each F7siRNA-loaded lipid nanoparticles were intravenously administered to ICR mice at 0.003-0.1 mg siRNA/kg, and plasma F7 enzyme activity at 24 hours later was measured. Relative plasma F7 enzyme activity (%) of mice administered each F7siRNA-loaded lipid nanoparticles was calculated using plasma F7 enzyme activity of untreated mice as 100%. FIG. 2(B) is the results of intravenous administration of each F7siRNA-loaded lipid nanoparticle at 0.1 mg siRNA/kg.

The nature of data set [4]: Average particle size (ζ-Average) and PDI by dynamic light scattering (Zetasizer Nano ZSP). Type of data set: physicochemical. The method in brief: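 Dynamic light scattering of the particles in PBS(−) gave both the polydispersity index and the ζ-Average mean size.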
Data set [5] can be described thus: siRNA/mRNA encapsulation rate by Ribogreen reagent (section IV). Type of data set: physicochemical. The following applies: for % siRNA encapsulation: F7siRNA-loaded LNP, 50:10:38.5:1.5, N/P ratio 6; for % mRNA encapsulation: FlucmRNA-loaded LNP, 50:10:38.5:1.5. The method in brief: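 Encapsulation % was calculated as (total − surface nucleic acid)/total × 100, with both values measured by RiboGreen fluorescence at 485/528 nm. Total RNA was read on LNPs lysed with 1% Triton X-100 at 1.2 μg/mL, and surface RNA on intact LNPs at 8 μg/mL in TE buffer. Concentrations came from a 0-2.5 μg/mL Triton-containing calibration curve.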

For the next data set, the system named is spleen. Briefly: In vivo Fluc activity of FlucmRNA-loaded LNP by in vivo imaging, spleen. The following applies: Balb/c mice, FlucmRNA-loaded LNP i.v. 0.1 mg mRNA/kg, 6 hours. The method in brief: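 Read-out is average radiance (p/s/cm2/sr, about 560 nm) from whole-animal imaging of liver and spleen 6 h post-dose, after tail-vein luciferin at 1.5 mg/mouse. Dosing was intravenous, 0.1 mg mRNA/kg, in 7-week-old female Balb/c mice.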

Data set [6] is described as follows: Storage stability of FlucmRNA-loaded LNP at −80, 5, 25 and 40° C. Type of data set: physicochemical. The settings on record: for period for which quality remained good, −80° C.: maximum storage period 1 week; for period for which quality remained good, 5° C. / period for which quality remained good, 25° C. / period for which quality remained good, 40° C. (weeks): maximum storage period 5 weeks. The method in brief: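 Reported period is how long all three criteria hold: encapsulation rate at 80% or more, PDI of 0.2 or less, and mean particle size within +/−20 nm of day-of-preparation value. Particle size, PDI and nucleic acid encapsulation were tracked over time at storage temperatures of −80, 5, 25 and 40° C.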

Setting [7] is: NlucmRNA-loaded LNP, 60:10:40:1.
Setting [8] is: F7siRNA-loaded LNP, 50:10:38.5:1.5, N/P ratio 6.
[9] abbreviates: FlucmRNA-loaded LNP, 50:10:38.5:1.5.
[10] abbreviates: FlucmRNA-loaded LNP, lipid:DSPC:cholesterol:DMG-PEG2K 50:10:38.5:1.5.

As to `CCCN(CCC)CCCCC(O)(CCCCCCOC(=O)C(CCC(C)CC(C)(C)C)C(C)CC(C)(C)C)CCCCCCOC(=O)C(CCC(C)CC(C)(C)C)C(C)CC(C)(C)C` (centres unmarked) [CL4G6, 7-(4-(dipropylamino)butyl)-7-hydroxytridecan-1,13-diyl bis(2-(4.4-dimethylpentan-2-yl)-5,7,7-trimethyloctanoate)], the “ζ-potential (mV)” value in data set [1] (setting [7]) is listed as −1.76 mV; in data set [1] (pFluc-loaded LNP, N/P ratio 6) it was −2.46 mV; in data set [1] (pFluc-loaded LNP, N/P ratio 9), −1.3 ± 0.7 mV. Besides, the “pKa of lipid nanoparticle, compared” value in data set [2] is given as “lower pKa”. The “% mRNA encapsulation” value is 91.7% in data set [3] and 99.8% in data set [5]. The “% pDNA encapsulation” value was determined as 97.6% in data set [3] (N/P ratio 6) and 94.5 ± 3.6% in data set [3] (N/P ratio 9). Besides, the “in vivo F7 knockdown activity, compared” value in the data set with F7 is “equivalent in vivo F7 knockdown activity”. The PDI is 0.048 in data set [4] (setting [8]) and 0.030 in data set [4] (setting [9]). The entries for the “ζ-Average (nm)” value in data set [4] (setting [8]) and in data set [4] (setting [10]) were 85.14 nm and 81.21 nm, respectively. Further, the “% siRNA encapsulation” value in data set [5] worked out at 100.1%. The “Fluc Activity in spleen” value in the data set with spleen is 2.08E+06 Avg Radiance [p/s/cm2/sr]. Besides, the “period for which quality remained good, −80° C.” value in data set [6] is 1 week. In addition, the “period for which quality remained good, 5° C.” value in data set [6] is recorded as 5 weeks. In addition, the “period for which quality remained good, 25° C.” value in data set [6] stood at 5 weeks. The “period for which quality remained good, 40° C. (weeks)” value in data set [6] was determined as 5 weeks.
Take `CCCCCCCCC(CCCCCC)C(=O)OCCCCCCC(O)(CCCCCCOC(=O)C(CCCCCC)CCCCCCCC)CCCCOC(=O)C1CCN(C)CC1` (centres unmarked) [CL15F6]: the “ζ-potential (mV)” value is given as −2.16 mV in data set [1] (setting [7]); −2.02 mV in data set [1] (pFluc-loaded LNP, N/P ratio 6); −1.2 ± 0.4 mV in data set [1] (pFluc-loaded LNP, N/P ratio 9). The “pKa of lipid nanoparticle, compared” value in data set [2] was “lower pKa”. The results for the “% mRNA encapsulation” value in data set [3] and in data set [5] were 90.3% and 99.69%, respectively. Besides, the “% pDNA encapsulation” value is recorded as 95.4% in data set [3] (N/P ratio 6) and 93.1 ± 3.3% in data set [3] (N/P ratio 9). The “in vivo F7 knockdown activity, compared” value in the data set on F7 is “equivalent in vivo F7 knockdown activity”. The PDI in data set [4] (setting [8]) turned out to be 0.044; in data set [4] (setting [9]), 0.002. Moreover, the “ζ-Average (nm)” value is recorded as 105.9 nm in data set [4] (setting [8]) and 115.50 nm in data set [4] (setting [10]). Also, in data set [5], the “% siRNA encapsulation” value came out at 100.5%. Further, in the data set on spleen, the “Fluc Activity in spleen” value was found to be 5.76E+06 Avg Radiance [p/s/cm2/sr]. The “period for which quality remained good, −80° C.” value in data set [6] was 1 week. In addition, the “period for which quality remained good, 5° C.” value in data set [6] is reported as 5 weeks. Further, in data set [6], the “period for which quality remained good, 25° C.” value was found to be 5 weeks. For the same compound, the “period for which quality remained good, 40° C. (weeks)” value in data set [6] stood at 5 weeks.

For the origin of these results see US12458605B2, “Lipid nanoparticle” (National University Corporation Hokkaido University, priority 2020, dated 2025).
